Experimental data published in patent publication US9809562B2, “NAT10 modulators for treating or preventing laminopathies, aging and cancer” (CAMBRIDGE ENTERPRISE LIMITED, priority 2014, dated 2017).
Structures can show the parent of a compound that is named as a salt.

Columns and labels:
[1] = test system: siLMNA cells and HGPS cells; test: Microtubules regrowth assay; assay type: cell-based, human; details: t=15 minutes after cold depolymerization, 5 to 10 μM Remodelin 16 hours
Procedure: 48 hours after siRNA transfections, microtubules were depolymerized by cold treatment at 4° C. for 1 hour in cells pre-treated or not with 5 to 10 μM Remodelin for 16 hours. Cold medium was replaced by pre-warmed medium and cells were incubated at 37° C. for 5 or 15 minutes to allow microtubules nucleation and anchorage respectively. Cells were fixed in PFA and stained with anti α-Tubulin antibody as described in the immunofluorescence procedure.

[2] = test system: siLMNA cells; test: Cell cycle profile by flow cytometry; assay type: cell-based, human
Procedure: 10 μM EdU was incubated for 2 hours when indicated. Cells were fixed in 4% paraformaldehyde (Sigma-Aldrich). EdU was fluorescently labeled using the Click-iT® EdU Flow Cytometry Assay Kit (Life Sciences). DNA was stained with […] propidium iodide (Sigma-Aldrich) in phosphate buffer solution (PBS) containing 0.1% Triton-X-100 and 0.5 mg ml^−1 DNase free RNase A (Sigma-Aldrich). Samples were processed on a FACSCalibur flow cytometer equipped with CellQuest software (Becton Dickinson). Results were analysed using FlowJo software (TreeStar).

[3] = target: T1, NAT10 purified from HEK293 cells (Homo sapiens, UniProt Q9H0A0); test: Lysine acetyltransferase (KAT) assay with tubulin substrate; assay type: biochemical; details: compounds at 50 μM
T1 construct: made in house; host or cells: HEK293 (transient transfection, anti-FLAG immunopurification, elution with triple-Flag peptide)
T1 sequence (Q9H0A0 1-1025): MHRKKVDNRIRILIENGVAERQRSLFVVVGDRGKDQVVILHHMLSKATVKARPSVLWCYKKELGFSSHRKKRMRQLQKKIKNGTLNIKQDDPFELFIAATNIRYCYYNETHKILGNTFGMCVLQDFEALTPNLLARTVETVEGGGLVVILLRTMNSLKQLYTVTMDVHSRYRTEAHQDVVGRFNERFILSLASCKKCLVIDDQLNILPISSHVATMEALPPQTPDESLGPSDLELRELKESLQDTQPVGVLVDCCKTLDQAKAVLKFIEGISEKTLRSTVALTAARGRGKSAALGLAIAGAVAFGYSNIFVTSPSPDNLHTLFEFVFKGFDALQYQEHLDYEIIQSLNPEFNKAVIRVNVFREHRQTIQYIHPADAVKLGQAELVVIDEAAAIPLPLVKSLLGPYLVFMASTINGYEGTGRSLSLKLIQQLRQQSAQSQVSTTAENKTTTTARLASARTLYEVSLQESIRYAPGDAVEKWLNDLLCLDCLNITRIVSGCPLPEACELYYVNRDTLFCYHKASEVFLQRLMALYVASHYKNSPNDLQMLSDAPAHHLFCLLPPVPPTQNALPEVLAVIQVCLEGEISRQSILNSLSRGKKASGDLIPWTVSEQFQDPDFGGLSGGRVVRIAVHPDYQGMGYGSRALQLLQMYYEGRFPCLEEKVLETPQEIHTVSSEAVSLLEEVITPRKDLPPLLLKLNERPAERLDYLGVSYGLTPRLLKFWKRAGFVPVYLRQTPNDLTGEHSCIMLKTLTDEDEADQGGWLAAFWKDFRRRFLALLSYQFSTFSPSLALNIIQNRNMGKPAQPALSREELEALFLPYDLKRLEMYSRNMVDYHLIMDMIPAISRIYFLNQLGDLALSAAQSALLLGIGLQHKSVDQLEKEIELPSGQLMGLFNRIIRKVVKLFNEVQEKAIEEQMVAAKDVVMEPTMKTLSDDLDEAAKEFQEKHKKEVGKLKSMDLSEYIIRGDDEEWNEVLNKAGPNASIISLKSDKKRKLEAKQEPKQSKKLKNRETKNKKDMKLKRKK
Procedure: HEK293 cells were transiently transfected with NAT10 constructs and harvested after 48 hours in PBS. Cells were lysed for 5 minutes at room temperature in IP lysis buffer (20 mM Tris pH 7.5, 40 mM NaCl, 2 mM MgCl2, 0.5% NP-40) freshly supplemented with 50 U/ml benzonase and EDTA-free protease inhibitor cocktail (Roche). After this initial lysis step, NaCl concentration was adjusted to 450 mM and samples were incubated at 4° C. with rotation. Lysates were clarified by centrifugation (13,200 rpm, 20 minutes at 4° C.), and after recovery NaCl concentration was equilibrated to 150 mM. Lysates were used for immunoprecipitation reaction in IP buffer (25 mM Tris pH 7.5, 150 mM NaCl, 1.5 mM DTT, 10% glycerol, 0.5% NP-40) supplemented with protease inhibitors. Target proteins were captured with anti-FLAG antibody (M2, Sigma-Aldrich) coupled to protein A/G-Dynabeads (Life Sciences). Complexes were washed with IP buffer containing incrementally increasing amounts of NaCl (250 mM, 500 mM, and 1M). Following this, the immuno-complexes were washed in TBS containing gradually decreasing amounts on NaCl (1M, 500 mM, 250 mM, and 150 mM). At this point, elution was carried out using excess triple-Flag peptide (Sigma Aldrich). Eluted proteins were loaded on a gel and the purification was verified by Silver Staining (SilverQuest kit, Life Sciences). […]

[4] = test system: cancer cell lines with low or high Lamin A/C expression; test: Population doubling time of cancer cell lines; assay type: cell-based, human
Procedure: FIG. 15: Compound 2 inhibits the proliferation, migration and invasion of cancer cells with low Lamin A/C expression. […] C) Quantification of transwell migration assays and matrigel invasion assays from the indicated low expressing cancer cell lines after treatment with 50 μM of compound 2.

[5] = test system: LMNA KO U2OS cells; test: Global protein translation by HPG incorporation (FACS), LMNA KO; assay type: cell-based, human; details: 24 h treatment, 1 h HPG
Procedure: U2OS cells expressing wild type or KO LMNA were treated with Compound 2 for 24 h and incubated for 1 h with the clickable methionine analogue HPG to measure global protein translation. HPG was then clicked with an Alexa fluor 488 and global fluorescence intensity was quantified by FACS on 10 000 cells.

SMILES | anchorage of microtubules to centrosomes [1] | accumulation of cells in mitosis [2] | NAT10 WT KAT activity towards tubulin [3] | proliferation of cells expressing high levels of lamin A/C ([4]; up to 50 μM) | global protein translation (HPG fluorescence intensity) [5] | effect on cell cycle profile ([2]; siLMNA cells) | population doubling time, sensitivity by Lamin A level ([4]; 50 μM for 1 week)
N#Cc1ccc(-c2csc(NN=C3CCCC3)n2)cc1 [Compound 1, 4-(4-Cyanophenyl)-2-(2-cyclopentylidenehydrazinyl)thiazole] | anchorage of microtubules to centrosomes was clearly affected | cells did not accumulate in mitosis | abolished NAT10 WT KAT activity | not affected by up to 50 μM Remodelin | – | – | –
Clc1ccc(-c2csc(NN=C3CCCC3)n2)cc1 [Compound 2, 4-(4-Chlorophenyl)-2-(2-cyclopentylidenehydrazinyl)thiazole Hydrochloride Salt] | – | – | – | – | strong reduction of global protein translation | without markedly affecting the cell cycle profile | cells expressing low levels of Lamin A are more sensitive to the molecule
C#CCN(N=C1CCCC1)c1nc(-c2ccc(Cl)cc2)cs1 [Compound 3, 4-(4-Chlorophenyl)-2-(2-cyclopentylidene-1-(prop-2-yn-1-yl)hydrazinyl)thiazole] | – | – | abolished NAT10 WT KAT activity | – | – | – | –
